{"source": "patent US9045435B2", "about": "“Quinazoline compounds as sodium channel blockers” (Purdue Pharma, L.P., priority 2010, dated 2015)", "origin": "cited, not measured here", "details_in_all_cases": "read-out: TTX IC50; cited from earlier work", "key": {"Nav1.6": {"biological_target": "Nav1.6 (Homo sapiens, UniProt Q9UQD0)", "sequence (Q9UQD0 whole entry, looked up)": "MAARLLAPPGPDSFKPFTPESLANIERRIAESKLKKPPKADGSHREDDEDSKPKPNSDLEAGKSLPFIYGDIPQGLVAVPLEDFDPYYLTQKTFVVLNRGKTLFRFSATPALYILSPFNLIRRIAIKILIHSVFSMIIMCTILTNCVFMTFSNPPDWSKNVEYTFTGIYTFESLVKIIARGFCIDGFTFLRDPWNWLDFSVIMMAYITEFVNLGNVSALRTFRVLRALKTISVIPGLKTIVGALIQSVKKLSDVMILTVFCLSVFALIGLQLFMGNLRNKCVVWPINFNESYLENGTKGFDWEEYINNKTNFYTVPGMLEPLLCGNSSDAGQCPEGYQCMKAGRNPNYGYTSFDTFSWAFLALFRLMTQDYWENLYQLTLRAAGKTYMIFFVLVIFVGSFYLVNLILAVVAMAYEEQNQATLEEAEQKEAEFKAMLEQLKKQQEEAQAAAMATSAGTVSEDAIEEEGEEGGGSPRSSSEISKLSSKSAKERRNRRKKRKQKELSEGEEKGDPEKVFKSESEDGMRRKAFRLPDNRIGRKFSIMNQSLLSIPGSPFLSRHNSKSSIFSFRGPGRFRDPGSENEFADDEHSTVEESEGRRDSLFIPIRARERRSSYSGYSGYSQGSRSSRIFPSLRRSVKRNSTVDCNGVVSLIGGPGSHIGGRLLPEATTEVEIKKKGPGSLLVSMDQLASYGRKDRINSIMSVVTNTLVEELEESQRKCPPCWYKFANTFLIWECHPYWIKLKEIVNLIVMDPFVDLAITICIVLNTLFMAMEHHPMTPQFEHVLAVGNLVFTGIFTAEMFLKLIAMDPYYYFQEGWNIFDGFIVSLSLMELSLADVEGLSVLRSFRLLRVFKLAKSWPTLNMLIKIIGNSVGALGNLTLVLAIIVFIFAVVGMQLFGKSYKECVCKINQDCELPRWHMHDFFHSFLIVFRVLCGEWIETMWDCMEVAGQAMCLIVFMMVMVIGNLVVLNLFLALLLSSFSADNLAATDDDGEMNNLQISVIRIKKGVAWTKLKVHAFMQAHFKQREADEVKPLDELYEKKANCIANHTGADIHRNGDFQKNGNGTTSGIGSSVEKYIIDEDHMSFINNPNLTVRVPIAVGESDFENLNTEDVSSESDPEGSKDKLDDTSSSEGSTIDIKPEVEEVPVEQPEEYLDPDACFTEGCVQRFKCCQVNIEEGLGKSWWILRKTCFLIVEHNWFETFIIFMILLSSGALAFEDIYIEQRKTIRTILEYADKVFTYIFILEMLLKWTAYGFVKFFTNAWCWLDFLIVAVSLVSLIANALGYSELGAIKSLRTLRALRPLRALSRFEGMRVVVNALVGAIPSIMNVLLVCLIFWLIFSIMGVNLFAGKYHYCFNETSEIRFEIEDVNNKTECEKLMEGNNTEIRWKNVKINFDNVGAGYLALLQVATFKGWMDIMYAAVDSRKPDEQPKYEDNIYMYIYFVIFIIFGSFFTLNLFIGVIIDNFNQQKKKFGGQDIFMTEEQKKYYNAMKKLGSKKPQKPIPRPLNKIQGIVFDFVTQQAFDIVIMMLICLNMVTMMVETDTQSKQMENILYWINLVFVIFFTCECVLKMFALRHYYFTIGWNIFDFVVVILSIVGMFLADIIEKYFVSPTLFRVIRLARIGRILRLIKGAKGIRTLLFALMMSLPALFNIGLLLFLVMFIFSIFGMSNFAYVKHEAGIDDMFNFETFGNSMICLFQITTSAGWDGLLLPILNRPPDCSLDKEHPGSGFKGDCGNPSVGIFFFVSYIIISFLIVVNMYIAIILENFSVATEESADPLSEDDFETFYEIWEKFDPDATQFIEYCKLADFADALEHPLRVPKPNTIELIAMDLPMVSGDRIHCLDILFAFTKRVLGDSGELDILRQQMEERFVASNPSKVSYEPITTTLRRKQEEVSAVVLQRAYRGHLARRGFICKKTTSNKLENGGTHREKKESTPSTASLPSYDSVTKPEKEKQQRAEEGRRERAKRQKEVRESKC"}, "Nav1.3": {"biological_target": "Nav1.3 (Homo sapiens, UniProt Q9NY46)"}, "Nav1.1": {"biological_target": "Nav1.1 (Homo sapiens, UniProt P35498)"}, "Nav1.8": {"biological_target": "Nav1.8 (Homo sapiens, UniProt Q9Y5Y9)", "sequence (Q9Y5Y9 whole entry, looked up)": "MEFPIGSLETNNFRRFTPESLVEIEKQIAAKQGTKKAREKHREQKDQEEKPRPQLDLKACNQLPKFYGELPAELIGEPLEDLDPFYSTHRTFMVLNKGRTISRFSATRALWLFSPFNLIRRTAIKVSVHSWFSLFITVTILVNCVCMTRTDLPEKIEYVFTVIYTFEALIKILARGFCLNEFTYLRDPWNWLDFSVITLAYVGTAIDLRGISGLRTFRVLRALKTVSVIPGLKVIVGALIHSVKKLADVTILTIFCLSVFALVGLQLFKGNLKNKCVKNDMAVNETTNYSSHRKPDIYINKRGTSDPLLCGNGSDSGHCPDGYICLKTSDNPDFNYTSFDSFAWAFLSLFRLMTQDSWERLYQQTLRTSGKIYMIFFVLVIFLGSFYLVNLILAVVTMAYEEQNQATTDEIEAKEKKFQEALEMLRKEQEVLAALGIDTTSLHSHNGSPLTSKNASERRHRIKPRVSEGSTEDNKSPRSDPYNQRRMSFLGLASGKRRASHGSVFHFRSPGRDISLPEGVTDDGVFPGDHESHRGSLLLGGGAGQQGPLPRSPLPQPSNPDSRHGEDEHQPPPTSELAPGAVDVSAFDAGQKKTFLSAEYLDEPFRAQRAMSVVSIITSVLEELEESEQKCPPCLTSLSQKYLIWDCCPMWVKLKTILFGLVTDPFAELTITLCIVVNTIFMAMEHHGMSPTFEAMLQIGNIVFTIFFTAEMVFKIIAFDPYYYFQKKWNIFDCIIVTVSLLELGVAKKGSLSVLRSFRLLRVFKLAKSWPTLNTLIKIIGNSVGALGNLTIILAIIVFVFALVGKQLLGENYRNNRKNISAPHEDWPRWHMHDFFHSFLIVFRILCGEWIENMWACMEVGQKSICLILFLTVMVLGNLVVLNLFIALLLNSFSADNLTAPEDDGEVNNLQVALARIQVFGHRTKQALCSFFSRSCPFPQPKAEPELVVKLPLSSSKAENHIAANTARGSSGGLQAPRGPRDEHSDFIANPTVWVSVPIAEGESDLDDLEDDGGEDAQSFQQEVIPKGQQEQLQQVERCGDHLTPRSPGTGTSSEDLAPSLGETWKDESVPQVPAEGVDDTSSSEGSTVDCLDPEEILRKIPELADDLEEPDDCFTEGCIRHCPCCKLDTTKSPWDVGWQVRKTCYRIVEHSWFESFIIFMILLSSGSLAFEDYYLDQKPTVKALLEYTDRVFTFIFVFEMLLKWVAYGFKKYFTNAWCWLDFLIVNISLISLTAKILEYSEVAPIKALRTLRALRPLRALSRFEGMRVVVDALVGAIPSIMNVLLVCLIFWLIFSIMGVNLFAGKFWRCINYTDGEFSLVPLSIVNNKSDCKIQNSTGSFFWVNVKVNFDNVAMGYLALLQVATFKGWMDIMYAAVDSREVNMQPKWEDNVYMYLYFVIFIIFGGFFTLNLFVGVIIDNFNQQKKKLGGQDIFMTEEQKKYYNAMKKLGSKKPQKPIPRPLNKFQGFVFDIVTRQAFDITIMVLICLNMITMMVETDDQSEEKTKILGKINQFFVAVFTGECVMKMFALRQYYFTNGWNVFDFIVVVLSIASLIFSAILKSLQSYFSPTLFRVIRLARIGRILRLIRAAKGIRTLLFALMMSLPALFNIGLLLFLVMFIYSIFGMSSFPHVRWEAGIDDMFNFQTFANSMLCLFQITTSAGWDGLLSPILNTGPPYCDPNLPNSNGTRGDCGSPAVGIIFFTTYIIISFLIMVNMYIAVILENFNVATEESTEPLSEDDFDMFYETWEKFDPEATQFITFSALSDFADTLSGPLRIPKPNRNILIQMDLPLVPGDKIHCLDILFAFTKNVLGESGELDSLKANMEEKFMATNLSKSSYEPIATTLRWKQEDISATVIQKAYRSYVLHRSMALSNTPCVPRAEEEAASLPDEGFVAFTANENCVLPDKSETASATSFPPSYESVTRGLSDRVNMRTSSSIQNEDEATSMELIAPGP"}, "Nav1.9": {"biological_target": "Nav1.9 (Homo sapiens, UniProt Q9UI33)"}, "Nav1.2": {"biological_target": "Nav1.2 (Homo sapiens, UniProt Q99250)"}}}
{"smiles": "NC1=N[C@H](O)[C@H]2[C@H]3O[C@]4(O)O[C@@H]([C@@H](O)[C@@]2(N1)[C@@H]4O)[C@]3(O)CO", "note": "[TTX, tetrodotoxin]", "values": [{"measurement": "IC50", "setting": "Nav1.6", "value": 6, "unit": "nM"}, {"measurement": "IC50", "setting": "Nav1.3", "value": 15, "unit": "nM"}, {"measurement": "IC50", "setting": "Nav1.1", "value": 10, "unit": "nM"}, {"measurement": "IC50", "setting": "Nav1.8", "value": 50000, "unit": "nM"}, {"measurement": "IC50", "setting": "Nav1.9", "value": 1000, "unit": "nM"}, {"measurement": "IC50", "setting": "Nav1.2", "value": 10, "unit": "nM"}]}
